Experimental data as given in patent publication US9475841B2, “Melanoma antigen peptide and uses thereof” (INSERM (INSTITUT NATIONAL DE LA SANTE ET DE LA RECHERCHE …, priority 2012, dated 2016).

What was measured:
[1] = system: MELOE-1 specific CD4+ T cells; test: MELOE-1 CD4+ T cell responses in PBMC from healthy donors: restimulation of microcultures with overlapping peptides, CD4/TNF-α staining; assay type: cell-based, human; details: for Microcultures containing MELOE-1 specific CD4+ T cells (TNF-α production): positive/tested microcultures
Experimental: PBMC from healthy donors were stimulated with 10 μM of MELOE-1. After 14 days, the presence of CD4 T cells specific for the different regions of MELOE-1 was assessed by restimulating cells with MELOE-12-21, MELOE-111-30, MELOE-118-37 and MELOE-126-46 peptides, followed by CD4/TNF-α double staining and flow cytometry analysis. Between brackets is indicated the mean % of TNF-α producing CD4 T cells, in positive microcultures. NA: not available.
(§1) PBMC from healthy donors or melanoma patients (2·10^5 cells/well) were cultured for 14 days with 10 μM of MELOE-1 whole antigen (46 amino acids) in RPMI medium supplemented with 8% HS, 50 IU/ml of rIL-2 (Chiron, France) and L-Glutamin, in 96-well multiplates. Microcultures were then restimulated individually with each overlapping peptide (MELOE-12-21, MELOE-111-30, MELOE-118-37, MELOE-12646 or MELOE-122-46 for melanoma patients) in the presence of 10 μg/mL brefeldin A for 5 hours and the percentage of CD4^+ specific T cells was assessed by TNF-α, IFN-γ or IL-4 intracellular staining. A negative control without peptide was included in all experiments.
Our purpose was to look for the existence of class II helper epitopes all along MELOE-1 sequence (SEQ ID NO:20), in order to document the immunogenicity of the different regions of this melanoma antigen. We stimulated 2·10^7 PBMC from seven healthy donors with MELOE-1 whole antigen and tested, after a 14-day culture period the presence of CD4 T cells specific for each region of the protein. Microcultures were screened for TNFα production by CD4+ T cells, after restimulation with four MELOE-1 derived overlapping peptides (Table I), in an autopresentation assay. […] On the contrary, the central region 18-37, containing an already described DR11-restricted epitope (24-37) located just at the end of this 20-mer peptide (Rogel et al., 2011), induced specific responses in microcultures deriving from only 2/7 donors (HD9 and HD17, both expressing the DR11 element). In these two donors, we detected 6 and 7% of positive microcultures, containing between 0.6 to 3.7% of TNFα producing CD4 T cells.

[2] = system: MELOE-1 specific CD4 T cells; test: MELOE-1 CD4+ T cell responses in PBMC from melanoma patients: restimulation with peptides, CD4/IFN-γ (Th1) and CD4/IL4 (Th2) staining; assay type: cell-based, human; details: for mean % of cytokine producing CD4 T cells, in positive microcultures (IFN-γ): Th1; for mean % of cytokine producing CD4 T cells, in positive microcultures (IL4): Th2; for Th1 responses (IFN-γ positive microcultures) / Th2 responses (IL4 positive microcultures): positive/tested microcultures
Experimental: PBMC from melanoma patients were stimulated with 10 μM of MELOE-1. After 14 days, the presence of CD4 T cells specific for the different regions of MELOE-1 was assessed by restimulating cells with MELOE-12-21, MELOE-111-30 and MELOE-122-46 peptides, followed by CD4/IFN-γ double staining for the detection of Th1 responses, and by CD4/IL4 double staining for Th2 responses. Between brackets is indicated the mean % of cytokine producing CD4 T cells, in positive microcultures.
as §1
In order to confirm the immunogenicity of each MELOE-1 regions in melanoma patients, we stimulated melanoma patients PBMC with the MELOE-1 whole protein, and tested the reactivity of stimulated lymphocytes towards the three most immunogenic regions: 2-21, 11-30, and 22-46. For this study, instead of challenging microcultures with the 18-37 peptide, that appeared poorly immunogenic, we extended the C-terminus region from 26-46 to 22-46, in order to also detect responses to our previously described HLA-DR11-restricted epitope (24-37). […] We tested the induction of CD4 specific responses from MELOE-1 stimulated PBMC of […] melanoma patients. We documented CD4 responses specific for the central region of MELOE-1 (11-30) for 7/9 patients, whereas responses specific for MELOE-12-21 and MELOE-122-46 were respectively detected in 4/9 and 5/9 patients (Table III). These responses were mainly Th1 responses (IFN-g production) while less frequent Th2 responses specific for the three regions of MELOE-1 were detected in 3/9 patients for MELOE-12-21, 2/9 patients for MELOE-111-30 and 5/9 patients for MELOE-122-46 (Table III). […] Concerning Th2 responses, much less frequent, the C-term region appeared to induce more frequently the growth of IL-4 producing CD4 T cells than the two other regions (FIG. 2A). […] In summary, stimulation of patient's PBMC with MELOE-1 induced Th1 responses specific for diverse epitopes located all along the protein sequence, and among the different regions, the central region (11-30) and the C-term region (22-46) appeared to be especially immunogenic in term of frequency of responses.

## TSREQFLPSEGAACPPWHPS [MELOE-111-30]
[1]; all healthy donors, FIG. 1, p<0.0001
  frequency of positive microcultures compared with the three other regions of MELOE-1: significantly higher
[1]; donor HD9
  mean % of TNF-α producing CD4 T cells, in positive microcultures: (2.4% ± 1.5)
[1]; donor HD9 (DPβ1*0902/1501, DQβ1*0301, DRβ1*1104/1201)
  Microcultures containing MELOE-1 specific CD4+ T cells (TNF-α production): 13/96
[1]; donor HD17
  mean % of TNF-α producing CD4 T cells, in positive microcultures: (8.2% ± 6.5)
[1]; donor HD17 (DPβ1*0401/0301, DQβ1*0301/0603, DRβ1*1101/1301)
  Microcultures containing MELOE-1 specific CD4+ T cells (TNF-α production): 26/96
[1]; donor HD22
  mean % of TNF-α producing CD4 T cells, in positive microcultures: (3.9% ± 3.3)
[1]; donor HD22 (DPβ1*0401/1101, DQβ1*0202, DRβ1*0701)
  Microcultures containing MELOE-1 specific CD4+ T cells (TNF-α production): 2/96
[1]; donor HD24
  mean % of TNF-α producing CD4 T cells, in positive microcultures: (2% ± 1.4)
[1]; donor HD24 (DPβ1*0401/0101, DQβ1*0501/0602, DRβ1*0101/1501)
  Microcultures containing MELOE-1 specific CD4+ T cells (TNF-α production): 46/96
[1]; donor HD25
  mean % of TNF-α producing CD4 T cells, in positive microcultures: (1.2% ± 0.7)
[1]; donor HD25 (DPβ1*0401/0402, DQβ1*0201, DRβ1*0301)
  Microcultures containing MELOE-1 specific CD4+ T cells (TNF-α production): 3/96
[1]; donor HD27
  mean % of TNF-α producing CD4 T cells, in positive microcultures: (5% ± 3.4)
[1]; donor HD27 (DQβ1*501/0201, DRβ1*0101/0301)
  Microcultures containing MELOE-1 specific CD4+ T cells (TNF-α production): 5/96
[1]; donor HD28 (DRβ1*0301)
  Microcultures containing MELOE-1 specific CD4+ T cells (TNF-α production): 14/48
[1]; seven healthy donors
  donors in which CD4 responses against the region were detected: each tested donor
[2]; 576 tested microcultures from melanoma patients, IFN-γ
  Th1 responses, % of tested microcultures: 10.8%
[2]; melanoma patients, IL4
  patients in which Th2 responses were detected: 2/9
[2]; melanoma patients, Table III, Th1 (IFN-γ)
  patients in which CD4 responses specific for the region were detected: 7/9
[2]; patient Pt ≠ 1
  mean % of cytokine producing CD4 T cells, in positive microcultures (IFN-γ): (1.4% ± 0.7)
  mean % of cytokine producing CD4 T cells, in positive microcultures (IL4): (1%)
  Th1 responses (IFN-γ positive microcultures): 10/48
  Th2 responses (IL4 positive microcultures): 1/48
[2]; patient Pt ≠ 2
  mean % of cytokine producing CD4 T cells, in positive microcultures (IFN-γ): (1.6% ± 1.2)
  Th1 responses (IFN-γ positive microcultures): 16/96
  Th2 responses (IL4 positive microcultures): 0/96
[2]; patient Pt ≠ 3 (DPβ1*0201/2001, DQβ1*0303/0501, DRβ1*0101/0701)
  Th1 responses (IFN-γ positive microcultures): 5/96
[2]; patient Pt ≠ 3
  mean % of cytokine producing CD4 T cells, in positive microcultures (IFN-γ): (16.2% ± 33.2)
  Th2 responses (IL4 positive microcultures): 0/96
[2]; patient Pt ≠ 4
  mean % of cytokine producing CD4 T cells, in positive microcultures (IFN-γ): (0.9% ± 0.5)
  Th1 responses (IFN-γ positive microcultures): 9/48
  Th2 responses (IL4 positive microcultures): 0/48
[2]; patient Pt ≠ 5
  mean % of cytokine producing CD4 T cells, in positive microcultures (IFN-γ): (1.5% ± 1.1)
  Th1 responses (IFN-γ positive microcultures): 6/48
  Th2 responses (IL4 positive microcultures): 0/48
[2]; patient Pt ≠ 6
  mean % of cytokine producing CD4 T cells, in positive microcultures (IFN-γ): (1.5% ± 1.9)
  Th1 responses (IFN-γ positive microcultures): 5/48
  Th2 responses (IL4 positive microcultures): 0/48
[2]; patient Pt ≠ 7
  Th1 responses (IFN-γ positive microcultures): 0/48
  Th2 responses (IL4 positive microcultures): 0/48
[2]; patient Pt ≠ 8
  mean % of cytokine producing CD4 T cells, in positive microcultures (IFN-γ): (2.9% ± 0.04)
  Th1 responses (IFN-γ positive microcultures): 2/48
  Th2 responses (IL4 positive microcultures): 0/48
[2]; patient Pt ≠ 9
  mean % of cytokine producing CD4 T cells, in positive microcultures (IL4): (0.6% ± 0.09)
  Th1 responses (IFN-γ positive microcultures): 0/48
  Th2 responses (IL4 positive microcultures): 9/48
